The record followed here is patent publication US10246469B2, “Biaryl kinase inhibitors” (BRISTOL-MYERS SQUIBB COMPANY, priority 2015, dated 2019).

This assay addresses T1, GST-Xa-hAAK1 (Homo sapiens, UniProt Q2M2I8).
T1 construct: GST (N); Factor Xa cleavage site (Xa) (internal); made in house
The assay is described as follows: AAK1 Kinase Assay. The settings on record: bacterially expressed GST-Xa-hAAK1 3.5 nM; ATP 22 μM; fluoresceinated peptide 1.5 μM; 3 hours at room temperature; Caliper LabChip 3000. Type of assay: biochemical. The procedure: The assays were performed in U-bottom 384-well plates. The final assay volume was 30 μl prepared from 15 μl additions of enzyme and substrates (fluoresceinated peptide (5-FAM)-Aha-[…]-NH2 and ATP) and test compounds in assay buffer (10 mM Tris-HCL pH 7.4, 10 mM MgCl2, 0.01% Tween-20 and 1.0 mM DTT). The reactions were initiated by the combination of bacterially expressed, GST-Xa-hAAK1 with substrates and test compounds. The reactions were incubated at room temperature for 3 hours and terminated by adding 60 μl of 35 mM EDTA buffer to each sample. The reactions were analyzed on the Caliper LabChip 3000 (Caliper, Hopkinton, Mass.) by electrophoretic separation of the fluorescent substrate and phosphorylated product. […] The final concentration of reagents in the assays are ATP, 22 μM; (5-FAM)-Aha-[…]-NH2, 1.5 μM; GST-Xa-hAAK1, 3.5 nM; and DMSO, 1.6%. […] Compounds were dissolved at 10 mM in dimethylsulfoxide (DMSO) and evaluated at eleven concentrations. IC50 values were derived by non-linear regression analysis.

T1 sequence (Q2M2I8 whole entry): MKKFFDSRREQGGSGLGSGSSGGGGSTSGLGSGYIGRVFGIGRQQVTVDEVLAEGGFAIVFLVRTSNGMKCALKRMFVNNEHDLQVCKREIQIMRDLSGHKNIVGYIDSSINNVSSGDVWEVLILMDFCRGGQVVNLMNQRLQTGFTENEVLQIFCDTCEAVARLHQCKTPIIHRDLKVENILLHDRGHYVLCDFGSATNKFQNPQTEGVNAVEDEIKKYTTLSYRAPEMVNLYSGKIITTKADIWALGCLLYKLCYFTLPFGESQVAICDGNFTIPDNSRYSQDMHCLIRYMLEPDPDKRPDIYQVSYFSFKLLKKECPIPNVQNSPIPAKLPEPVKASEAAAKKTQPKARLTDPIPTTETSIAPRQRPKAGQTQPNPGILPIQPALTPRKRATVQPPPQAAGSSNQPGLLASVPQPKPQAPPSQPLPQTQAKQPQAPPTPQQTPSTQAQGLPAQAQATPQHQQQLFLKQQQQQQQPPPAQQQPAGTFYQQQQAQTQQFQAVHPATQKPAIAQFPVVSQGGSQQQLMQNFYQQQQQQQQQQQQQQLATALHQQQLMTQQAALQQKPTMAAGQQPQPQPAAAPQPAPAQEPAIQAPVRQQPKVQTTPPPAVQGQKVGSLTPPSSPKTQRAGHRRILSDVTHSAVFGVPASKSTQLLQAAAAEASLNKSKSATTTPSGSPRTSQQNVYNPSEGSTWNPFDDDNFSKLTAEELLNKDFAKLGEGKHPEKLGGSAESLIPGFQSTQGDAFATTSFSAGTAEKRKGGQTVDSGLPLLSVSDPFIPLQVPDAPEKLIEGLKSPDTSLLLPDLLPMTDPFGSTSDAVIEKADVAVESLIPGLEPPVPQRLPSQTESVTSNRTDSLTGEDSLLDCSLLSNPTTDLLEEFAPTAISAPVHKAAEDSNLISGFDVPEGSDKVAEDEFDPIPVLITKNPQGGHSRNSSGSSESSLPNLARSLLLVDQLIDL

Regarding `Cc1cc(-c2ccnc3ccnn23)cnc1OC[C@](C)(N)CC(C)C` [Example 264, (R)-2,4-dimethyl-1-((3-methyl-5-(pyrazolo[1,5-a]pyrimidin-7-yl)pyridin-2-yl)oxy)pentan-2-amine], the IC50 (as a rule, the concentration that gives 50% inhibition) was 0.079 µM. With `CC(C)C[C@](C)(N)COc1ccc(-c2ccnc(NC3CCCOC3)c2)cc1Cl` (single isomer, unassigned) [Example 339] the figure was 0.017 µM; with `CC(C)C[C@](C)(N)COc1cc(F)c(-c2ccnc3ccnn23)cc1F` [Example 489, (S)-1-(2,5-difluoro-4-(pyrazolo[1,5-a]pyrimidin-7-yl)phenoxy)-2,4-dimethylpentan-2-amine], 0.278 µM.

`CC(C)C[C@](C)(N)COc1ccc(-c2ccnc3ccnn23)c2scnc12` [Example 341, (S)-2,4-dimethyl-1-((7-(pyrazolo[1,5-a]pyrimidin-7-yl)benzo[d]thiazol-4-yl)oxy)pentan-2-amine]: the IC50 came to 0.212 µM. With `Cc1cc(-c2ccc(OC[C@@](C)(N)CC(C)C)c(C#N)c2)n2nc(C)cc2n1` [Example 464, (S)-2-((2-amino-2,4-dimethylpentyl)oxy)-5-(2,5-dimethylpyrazolo[1,5-a]pyrimidin-7-yl)benzonitrile] the figure was 0.495 µM. The figure for `CC(C)C[C@](C)(N)COc1ccc(-c2ncnc3[nH]ccc23)cc1C(F)(F)F` [Example 363, (S)-1-(4-(7H-pyrrolo[2,3-d]pyrimidin-4-yl)-2-(trifluoromethyl)phenoxy)-2,4-dimethylpentan-2-amine] is 0.0004 µM; for `CC(C)C[C@](C)(N)COc1ccc(-c2ccnc(NC(=O)CCC3CCCC3)c2)cc1C(F)(F)F` [Example 393, (S)—N-(4-(4-((2-amino-2,4-dimethylpentyl)oxy)-3-(trifluoromethyl)phenyl)pyridin-2-yl)-3-cyclopentylpropanamide] it is 0.0073 µM; for `Cc1nc2c(-c3ccc(OC[C@@](C)(N)CC(C)C)c(C)c3)ccnc2[nH]1` [Example 294, (S)-2,4-dimethyl-1-(2-methyl-4-(2-methyl-3H-imidazo[4,5-b]pyridin-7-yl)phenoxy)pentan-2-amine] it is 0.12 µM. For `Cc1cc(-c2ccnc3ccnn23)ccc1OC[C@@](C)(N)CC(C)C` [Example 472, (S)-2,4-dimethyl-1-(2-methyl-4-(pyrazolo[1,5-a]pyrimidin-7-yl)phenoxy)pentan-2-amine], the IC50 turned out to be 0.0005 µM. With `Cc1nccc(-c2cnc(OCC3(N)CCC3)c(C)c2)n1` [Example 347, 1-(((3-methyl-5-(2-methylpyrimidin-4-yl)pyridin-2-yl)oxy)methyl)cyclobutanamine] the figure was 0.964 µM; with `CC(C)C[C@](C)(N)COc1ccc(-c2ccnc(NC(=O)c3ccco3)c2)cc1C(F)(F)F` [Example 400, (S)—N-(4-(4-((2-amino-2,4-dimethylpentyl)oxy)-3-(trifluoromethyl)phenyl)pyridin-2-yl)furan-2-carboxamide], 0.0003 µM; with `Cc1nc2c(-c3ccc(OC[C@@](C)(N)CC(C)C)c(C#N)c3)ccnc2[nH]1` [Example 293, (S)-2-((2-amino-2,4-dimethylpentyl)oxy)-5-(2-methyl-3H-imidazo[4,5-b]pyridin-7-yl)benzonitrile], 0.014 µM. Take `CC(C)C[C@](C)(N)COc1ccc(-c2ccnc3cc(C(F)(F)F)nn23)cc1F` [Example 335, (S)-1-(2-fluoro-4-(2-(trifluoromethyl)pyrazolo[1,5-a]pyrimidin-7-yl)phenoxy)-2,4-dimethylpentan-2-amine]: the IC50 worked out at 0.262 µM. The figure for `CC(C)C[C@](C)(N)COc1ccc(-c2ccnc(NC(=O)c3cc(C(C)C)[nH]n3)c2)cc1C(F)(F)F` [Example 409, (S)—N-(4-(4-((2-amino-2,4-dimethylpentyl)oxy)-3-(trifluoromethyl)phenyl)pyridin-2-yl)-5-isopropyl-1H-pyrazole-3-carboxamide] is 0.0007 µM; for `Cc1cc(-c2ccnc3c2C(=O)N(C)C3)ccc1OC[C@@](C)(N)CC(C)C` [Example 430, (S)-4-(4-((2-amino-2,4-dimethylpentyl)oxy)-3-methylphenyl)-6-methyl-6,7-dihydro-5H-pyrrolo[3,4-b]pyridin-5-one] it is 0.067 µM. The figure for `CC(C)C[C@](C)(N)COc1ccc(-c2cnc3cccnn23)cc1Cl` [Example 503, (S)-1-(2-chloro-4-(imidazo [1,2-b]pyridazin-3-yl)phenoxy)-2,4-dimethylpentan-2-amine] is 0.062 µM.

Regarding `CC(C)C[C@](C)(N)COc1ccc(-c2ccnc3ccnn23)cc1C(F)(F)F` [Example 467, (S)-2,4-dimethyl-1-(4-(pyrazolo[1,5-a]pyrimidin-7-yl)-2-(trifluoromethyl)phenoxy)pentan-2-amine], the IC50 was 0.0004 µM. For the compound `Cc1ncccc1C(=O)Nc1cc(-c2ccc(OC[C@@](C)(N)CC(C)C)c(C(F)(F)F)c2)ccn1` [Example 405, (S)—N-(4-(4-((2-amino-2,4-dimethylpentyl)oxy)-3-(trifluoromethyl)phenyl)pyridin-2-yl)-2-methylnicotinamide], the IC50 is 0.002 µM. Consider `CC(C)C[C@](C)(N)COc1ccc(-c2ccnc(NC3CCNCC3)c2)cc1C(F)(F)F` [Example 470, (S)-4-(4-(2-amino-2,4-dimethylpentyloxy)-3-(trifluoromethyl)phenyl)-N-(piperidin-4-yl)pyridin-2-amine], for which the IC50 turned out to be 0.138 µM. The figure for `CC(C)C[C@](C)(N)COc1ccc(-c2ccnc3c2C(=O)NC3)cc1Cl` [Example 417, (S)-4-(4-((2-amino-2,4-dimethylpentyl)oxy)-3-chlorophenyl)-6,7-dihydro-5H-pyrrolo[3,4-b]pyridin-5-one] is 0.0036 µM; for `CC(C)C[C@](C)(N)COc1ccc(-c2ccnc(Nc3nccs3)c2)cc1Cl` [Example 257, (S)—N-(4-(4-((2-amino-2,4-dimethylpentyl)oxy)-3-chlorophenyl)pyridin-2-yl)thiazol-2-amine] it is 0.00045 µM; for `Cc1cc(-c2cnc3cccnn23)ccc1OC[C@@](C)(N)CC(C)C` [Example 502, (S)-1-(4-(imidazo[1,2-b]pyridazin-3-yl)-2-methylphenoxy)-2,4-dimethylpentan-2-amine] it is 0.144 µM. As to `CC(C)C[C@](C)(N)COc1ccc(-c2cc(=O)[nH]cn2)cc1Cl` [Example 509, (S)-6-(4-((2-amino-2,4-dimethylpentyl)oxy)-3-chlorophenyl)pyrimidin-4(3H)-one], the IC50 turned out to be 0.0061 µM.

As for `Cc1nc2c(-c3ccc(OC[C@@](C)(N)CC(C)C)c(Cl)c3)ccnc2[nH]1` [Example 282, (S)-1-(2-chloro-4-(2-methyl-3H-imidazo[4,5-b]pyridin-7-yl)phenoxy)-2,4-dimethylpentan-2-amine], the IC50 was determined as 0.036 µM. For the compound `CC(C)C[C@](C)(N)COc1ccc(-c2ccnc3cc(C4CC4)nn23)cc1C(F)(F)F` [Example 483, (S)-1-(4-(2-Cyclopropylpyrazolo[1,5-a]pyrimidin-7-yl)-2-(trifluoromethyl)phenoxy)-2,4-dimethylpentan-2-amine], the IC50 is 0.0027 µM. Regarding `CC(C)C[C@](C)(N)COc1ccc(-c2ncnc3cc(F)c(F)cc23)cc1C(F)(F)F` [Example 471, (S)-1-(4-(6,7-difluoroquinazolin-4-yl)-2-(trifluoromethyl)phenoxy)-2,4-dimethylpentan-2-amine], the IC50 was found to be 0.0063 µM. In the case of `CC(C)C[C@](C)(N)COc1ccc(-c2ccnc3c2C(=O)N(C)C3)cc1F` [Example 413, (S)-4-(4-((2-amino-2,4-dimethylpentyl)oxy)-3-fluorophenyl)-6-methyl-6,7-dihydro-5H-pyrrolo [3,4-b]pyridin-5-one], the IC50 turned out to be 0.765 µM. The figure for `Cc1csc(Nc2nccc(-c3ccc(OC[C@@](C)(N)CC(C)C)c(C#N)c3)n2)n1` [Example 380, (S)-2-((2-amino-2,4-dimethylpentyl)oxy)-5-(2-((4-methylthiazol-2-yl)amino)pyrimidin-4-yl)benzonitrile] is 0.001 µM.

Turning to `CC(C)C[C@](C)(N)COc1ccc(-c2ccnc(NC3CCCOC3)c2)cc1C(F)(F)F` (mixture of isomers) [Example 475, 4-(4-((S)-2-amino-2,4-dimethylpentyloxy)-3-(trifluoromethyl)phenyl)-N-(tetrahydro-2H-pyran-3-yl)pyridin-2-amine], the IC50 came to 0.015 µM.

With `CC(C)C[C@](C)(N)COc1ccc(-c2ccnc3c2CC(=O)N3)cc1C#N` [Example 302, (S)-2-((2-amino-2,4-dimethylpentyl)oxy)-5-(2-oxo-2,3-dihydro-1H-pyrrolo[2,3-b]pyridin-4-yl)benzonitrile], the IC50 came to 0.0053 µM.

`CC(C)C[C@](C)(N)COc1ccc(-c2ccnn3cc(C4CC4)nc23)cc1C#N` [Example 499, (S)-2-((2-amino-2,4-dimethylpentyl)oxy)-5-(2-cyclopropylimidazo[1,2-b]pyridazin-8-yl)benzonitrile]: the IC50 turned out to be 0.0012 µM. As to `CC(C)C[C@](C)(N)COc1ccc(-c2ccnc(Nc3nccs3)n2)cc1C(F)(F)F` [Example 371, (S)—N-(4-(4-((2-amino-2,4-dimethylpentyl)oxy)-3-(trifluoromethyl)phenyl)pyrimidin-2-yl)thiazol-2-amine], the IC50 worked out at 0.0002 µM.
